Assays:
Swiss mice [1] = test: elevated T maze test (inhibitory avoidance and escape from the open arms); type: in vivo; set-up: Escape: unit not given here; details: for Escape / Inhibitory avoidances E1 / Inhibitory avoidances E2 / Inhibitory avoidances E3 / Inhibitory avoidances E4 / Inhibitory avoidances LB (basal latency): acute, average ± EPM; for Escape: departure time from open arm; for Inhibitory avoidances E1 / Inhibitory avoidances E2 / Inhibitory avoidances E3 / Inhibitory avoidances E4 / Inhibitory avoidances LB (basal latency): latency, maximum 300 seconds
Description: (§1) Swiss mice weighing 25-35 g from the central animal laboratory of the Sao Paulo State University (UNESP/Araraquara) were used. The animals were housed in groups of 10-12 animals, in polypropylene cages with wood shavings on the floor, with food and water available ad […]]. The animal laboratory was maintained under constant temperature 22±1° C., the lighting was controlled in 12-hour cycles from 7:00 am to 7:00 pm and the humidity was kept at between 50-60%. The pharmacological evaluation was performed with extract, standard drug and vehicle. Accordingly, lyophilized hydroalcoholic extract (50, 100, 200 and 400 mg/kg) was used, in addition to F2 (3, 6, 10, 17 and 30 mg/kg) and the alkaloids erythrartine, erythravine and 11-OH-erythravine (3 and 10 mg/kg), administered via oral intake by gavage. The standard drug used was Diazepam (DZP) in a dose of 2 mg/kg (via intraperitoneal, i.p). All solutions were prepared on the day of the experiment with sodium […] 0.9% and sonicated for 15 minutes and the diazepam in a solution of sodium […] 0.9% and Tween-80. The experiments were carried out between 11:00 am and 5:00 pm, and the experiment apparatus and procedures are described ahead. The elevated T maze is made with transparent glass walls and wooden floor and consists of a closed arm (30×5×15 cm) perpendicularly linked to two open arms (30×5×0.25 cm), raised at 38.5 cm above the floor by a wooden support. In this test, five consecutive measures of inhibitory avoidance were performed (basal latency, avoidances 1, 2, 3 and 4) and one measure of escape from the open arms, with intervals of 30 seconds between each attempt. In the avoidance measures, the animals were placed in the distal section of the closed arm and the exit latency of this arm, on all four paws, towards the open arm was timed. In the escape measure, the animals were placed in the extremity of the right-hand open arm and the departure time from this arm was measured. The animals' maximum length of stay in the arms of the maze during these measures was 300 seconds. The apparatus was cleaned with ethanol 20% after testing each animal. In order to avoid false positives or negatives, immediately after testing in the elevated T maze, the animals were submitted to the locomotive activity test in the arena. The apparatus consists of a white polypropylene box with a rectangular base (40×48 cm), surrounded by 30 cm high walls. The floor is subdivided into 30 squares (8×8 cm). In this test, the animals were placed in the center of the box and their activity was video recorded for five minutes, for subsequent analysis of the number of crossings of the quadrant areas and number of stretch-attend postures (WALSH and CUMMINS, 1976).
(§2) All the results from the animal models were initially submitted to the Levene homogeneity test. The heterogeneous results were converted into a logarithmic scale and later analyzed statistically. The results obtained from the elevated T maze were submitted to a two-way analysis of variance (ANOVA), with treatment being an independent factor and attempts being a dependent factor. […] The results obtained with the arena were submitted to a one-way ANOVA followed by the Duncan post hoc test. Amounts p≦0.05 were considered to be significant results.

Swiss mice [2] = test: locomotive activity test in the arena; type: in vivo; details: for Crossings / Stretch-attend postures: acute, number in five minutes, average ± EPM
Description: as §1, §2

[3] = system: serotonergic 3 receptor (5-HT3); details: in vitro test (ELSELÈ et al., 1993); cited from earlier work

COc1cc2c(cc1OC)[C@]13C[C@@H](O)C=CC1=CCN3C[C@H]2O [11-OH-erythravine, 11-hydroxy-erythravine]
Escape (Swiss mice [1]; 3 mg/kg oral by gavage): 21.5 ± 3.7 | Inhibitory avoidances E1 (Swiss mice [1]; 3 mg/kg oral by gavage): 41.8 ± 14.2 | Inhibitory avoidances E2 (Swiss mice [1]; 3 mg/kg oral by gavage): 96.0 ± 34.4 | Inhibitory avoidances E3 (Swiss mice [1]; 3 mg/kg oral by gavage): 132.3 ± 39.7 | Inhibitory avoidances E4 (Swiss mice [1]; 3 mg/kg oral by gavage): 194.4 ± 39.5 | Inhibitory avoidances LB (basal latency) (Swiss mice [1]; 3 mg/kg oral by gavage): 30.7 ± 5.8 | Escape (Swiss mice [1]; 10 mg/kg oral by gavage): 26.8 ± 4.8 | Inhibitory avoidances E1 (Swiss mice [1]; 10 mg/kg oral by gavage): 30.0 ± 6.1 | Inhibitory avoidances E2 (Swiss mice [1]; 10 mg/kg oral by gavage): 54.0 ± 21.1 | Inhibitory avoidances E3 (Swiss mice [1]; 10 mg/kg oral by gavage): 66.6 ± 30.3 | Inhibitory avoidances E4 (Swiss mice [1]; 10 mg/kg oral by gavage): 94.8 ± 31.7 | Inhibitory avoidances LB (basal latency) (Swiss mice [1]; 10 mg/kg oral by gavage): 22.6 ± 3.5 | performance in the inhibitory avoidance task (Swiss mice [1]; acute treatment, 3 and 10 mg/kg oral, result in words): impaired the performance of the animals in the inhibitory avoidance task | Crossings (Swiss mice [2]; 3 mg/kg oral by gavage): 158.5 ± 7.12 | Stretch-attend postures (Swiss mice [2]; 3 mg/kg oral by gavage): 27.7 ± 3.20 | Crossings (Swiss mice [2]; 10 mg/kg oral by gavage): 126.5 ± 12.71 | Stretch-attend postures (Swiss mice [2]; 10 mg/kg oral by gavage): 22.4 ± 3.50 | locomotive activity (number of crossings and stretch-attend postures) (Swiss mice [2]; 3 and 10 mg/kg oral, one-way ANOVA, result in words): none of the doses of 11-OH-erythravine used altered the locomotive activity

CO[C@H]1CC=C2CCN3CCC4=C(CC(=O)OC4)[C@]23C1 [DHBE, dihydro-β-erythroidine]
action at 5-HT3 receptor [3]: serotonergic 3 antagonist receptor (5-HT3)

CN1C(=O)CN=C(c2ccccc2)c2cc(Cl)ccc21 [DZP, Diazepam, reference compound]
Escape (Swiss mice [1]; DZP 2 mg/kg i.p.): 19.0 ± 3.2 | Inhibitory avoidances E1 (Swiss mice [1]; DZP 2 mg/kg i.p.): 15.3 ± 3.8 | Inhibitory avoidances E2 (Swiss mice [1]; DZP 2 mg/kg i.p.): 12.25 ± 1.6 | Inhibitory avoidances E3 (Swiss mice [1]; DZP 2 mg/kg i.p.): 22.3 ± 7.7 | Inhibitory avoidances E4 (Swiss mice [1]; DZP 2 mg/kg i.p.): 24.2 ± 7.3 | Inhibitory avoidances LB (basal latency) (Swiss mice [1]; DZP 2 mg/kg i.p.): 24.6 ± 4.1 | Crossings (Swiss mice [2]; DZP 2 mg/kg i.p.): 154.6 ± 19.48 | Stretch-attend postures (Swiss mice [2]; DZP 2 mg/kg i.p.): 19.13 ± 2.03
